Assay results reported in PubChem BioAssay AID624129 (Sanford-Burnham Center for Chemical Genomics, 2012).
The source made the active and inactive calls. How the calls were made is not given here.

Key:
Experiment in all cases: potency against CXCR6 with APJ panel – cell-based, beta-arrestin, DiscoveRx, uHTS hits, dose response (AID 624129)
[1] = target: Apelin receptor (Homo sapiens) (UniProt P35414); conditions: CXCR6 beta-arrestin (DiscoveRx) antagonist cell assay, APJ
[2] = target: Beta-galactosidase (Escherichia coli) (UniProt Q8VNN2); conditions: CXCR6 beta-arrestin (DiscoveRx) antagonist cell assay, b-galactosidase
[3] = target: C-C chemokine receptor type 6 (Homo sapiens) (UniProt P51684); conditions: CXCR6 beta-arrestin (DiscoveRx) antagonist cell assay
[4] = target: C-X-C chemokine receptor type 6 (Homo sapiens) (UniProt O00574); conditions: CXCR6 beta-arrestin (DiscoveRx) antagonist cell assay; for inhibition: CXCR6, run 1, dose range 2, at 80 µM (top of the series)
[5] = dose range 1, mean IC50 across replicates
[6] = CCR6, dose range 1, mean IC50 across replicates
[7] = CXCR6, dose range 1, mean IC50 across replicates

C-X-C chemokine receptor type 6 (Homo sapiens), sequence (O00574 whole entry, looked up): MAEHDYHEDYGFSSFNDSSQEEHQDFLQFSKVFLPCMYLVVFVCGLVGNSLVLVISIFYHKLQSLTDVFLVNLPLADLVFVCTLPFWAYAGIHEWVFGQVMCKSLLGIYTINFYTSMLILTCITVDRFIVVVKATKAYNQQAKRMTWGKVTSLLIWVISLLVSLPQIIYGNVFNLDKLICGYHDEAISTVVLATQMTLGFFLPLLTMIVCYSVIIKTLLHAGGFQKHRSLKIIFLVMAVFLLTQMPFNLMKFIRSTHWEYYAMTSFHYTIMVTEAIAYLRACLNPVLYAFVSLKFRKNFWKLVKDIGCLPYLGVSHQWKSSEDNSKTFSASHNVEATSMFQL
Beta-galactosidase (Escherichia coli), sequence (Q8VNN2 whole entry, looked up): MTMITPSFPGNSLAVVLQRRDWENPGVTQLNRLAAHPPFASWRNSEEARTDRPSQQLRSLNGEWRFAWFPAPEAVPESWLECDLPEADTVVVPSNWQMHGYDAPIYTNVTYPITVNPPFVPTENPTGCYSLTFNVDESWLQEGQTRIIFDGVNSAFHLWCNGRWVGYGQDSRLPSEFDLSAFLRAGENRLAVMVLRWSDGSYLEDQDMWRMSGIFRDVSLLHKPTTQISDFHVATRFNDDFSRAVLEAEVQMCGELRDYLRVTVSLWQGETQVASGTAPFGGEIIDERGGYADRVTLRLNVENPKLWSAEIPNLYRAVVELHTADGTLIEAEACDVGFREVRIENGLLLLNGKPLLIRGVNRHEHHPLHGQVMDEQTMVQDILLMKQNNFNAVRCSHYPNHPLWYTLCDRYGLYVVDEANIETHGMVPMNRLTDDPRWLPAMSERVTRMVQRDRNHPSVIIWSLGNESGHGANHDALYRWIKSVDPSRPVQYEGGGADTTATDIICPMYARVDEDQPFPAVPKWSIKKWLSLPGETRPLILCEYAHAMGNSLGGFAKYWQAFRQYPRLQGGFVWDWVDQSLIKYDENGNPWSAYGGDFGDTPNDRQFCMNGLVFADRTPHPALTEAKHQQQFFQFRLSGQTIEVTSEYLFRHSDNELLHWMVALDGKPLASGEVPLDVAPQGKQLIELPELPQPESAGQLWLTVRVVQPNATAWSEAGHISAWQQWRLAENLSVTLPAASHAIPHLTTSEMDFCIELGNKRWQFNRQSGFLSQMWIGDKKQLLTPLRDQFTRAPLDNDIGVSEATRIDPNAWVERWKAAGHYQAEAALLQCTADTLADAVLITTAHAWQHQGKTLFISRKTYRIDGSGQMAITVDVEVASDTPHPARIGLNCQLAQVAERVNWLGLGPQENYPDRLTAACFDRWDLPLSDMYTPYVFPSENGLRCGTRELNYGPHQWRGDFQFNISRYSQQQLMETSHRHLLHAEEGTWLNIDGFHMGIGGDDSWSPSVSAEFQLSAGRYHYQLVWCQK

Structure (SMILES) | IC50 ([1]; dose range 1) [µM] | IC50 [1, 5] [µM] | IC50 ([1]; run 2, dose range 1) [µM] | IC50 ([1]; run 3, dose range 1) [µM] | IC50 ([2]; dose range 1) | IC50 [2, 5] [µM] | IC50 ([3]; CCR6, dose range 1) [µM] | IC50 [3, 6] [µM] | IC50 ([3]; CCR6, run 2, dose range 1) [µM] | IC50 ([4]; CXCR6, dose range 1) | IC50 [4, 7] [µM] | IC50 ([4]; CXCR6, run 1, dose range 2) [µM] | IC50 ([4]; CXCR6, run 2, dose range 1) [µM] | IC50 ([4]; CXCR6, run 2, dose range 2) [µM] | inhibition [4] [%]
O=S(=O)(/C=C/C=C/S(=O)(=O)c1ccccc1)c1ccccc1 | 23.5 | 24.6 | 25.7 | > 80 | > 80 µM (inactive) | > 80 | 7.48 | 7.41 | 7.33 | 11.6 µM | 10.5 | 10.1 | 8.76 | 11.4 | 
COc1ccc(C(=O)/C(=C\c2ccco2)N2C=CC=CC2=C(C#N)C#N)cc1 | 6.33 | 5.69 | 5.06 | 5.67 | > 80 µM (inactive) | > 80 | 3.27 | 3.72 | 4.17 | 4.73 µM | 4.87 | 4.61 | 5.18 | 4.96 | 
C/C(=N\NC(=O)C1COc2ccccc2O1)c1ccccn1 (configuration not stated) | 5.83 | 5.59 | 4.73 | 6.22 | > 80 µM (inactive) | > 80 | 3.22 | 3.87 | 4.51 | inactive | 15.5 | 3.86 | 12.6 | 3.74 | 
C/C(=N\NC(=O)Cn1c(-c2ccccn2)nc2ccccc21)c1ccccc1 | 23.9 | 21.3 | 16.1 | 23.9 | 34 µM | 34 | 13.7 | 16.2 | 18.7 | inactive | 18.4 | 9.71 | 29.4 | 8.43 | 
COc1ccc(C2CC(c3c(O)n(CCc4ccccc4)c(=O)[nH]c3=O)=NN2)cc1OC (configuration not stated) | 10.5 | 14.3 | 22.1 | 10.4 | inactive | 52 | 14.8 | 18 | 21.2 | inactive | 14.2 | 6.37 | 22.4 | 8.63 | 
CC(=O)OC1C2(CC3N4C(=O)C5(CO)SSC4(CC31O)C(=O)N5C)OC(C)C(C)(C)C2=O (configuration not stated) | 1.1 | 1.22 | 0.918 | 1.64 | > 80 µM (inactive) | > 80 | 1.34 | 1.35 | 1.36 | 0.925 µM | 0.724 | 0.497 | 0.936 | 0.54 | 
Cc1ccc(NC(=S)N/N=C/c2ccc([N+](=O)[O-])s2)cc1 | 9.42 | 19.2 | 18.1 | 30 | 31.3 µM | 31.3 | 3.88 | 5.06 | 6.24 | 9.1 µM | 7.46 | 5.64 | 8.89 | 6.21 | 
CCS(=O)(=O)c1ncc(Cl)c(C(=O)Nc2ccc(S(=O)(=O)N3CCC(C)CC3)cc2)n1 | 7.82 | 7.15 | 6.41 | 7.21 | > 80 µM (inactive) | > 80 | 5.88 | 5.71 | 5.55 | 7.4 µM | 8.21 | 8.3 | 7.89 | 9.26 | 
O=C(Cn1sc2ccccc2c1=O)NC12CC3CC(CC(C3)C1)C2 | 2.02 | 3.22 | 5.54 | 2.1 | > 80 µM (inactive) | > 80 | 1.54 | 1.66 | 1.78 | 2.69 µM | 2.42 |  | 2.16 |  | 70.8
CN(C)C(=O)CSc1cccc2cccnc12 |  | > 80 | > 80 | > 80 | > 80 µM (inactive) | > 80 |  | > 80 | > 80 | > 80 µM (inactive) | > 80 |  | > 80 |  | -25
Cc1ccc2c(Cl)cc(Cl)c(O)c2n1 | 2.79 | 5.05 | 5.23 | 7.12 | > 80 µM (inactive) | > 80 | 3.37 | 3.57 | 3.77 | 4.4 µM | 3.59 | 3.41 | > 80 | 2.96 | 
CC(=O)Nc1ccc(NC(=O)c2nc(S(=O)(=O)Cc3cccc(C)c3)ncc2Cl)cc1 | 7.19 | 8.89 | 10.8 | 8.71 | > 80 µM (inactive) | > 80 | 6.61 | 5.6 | 4.59 |  | 4.95 |  | 4.95 |  | 23.1
CCc1cc2c(=O)[nH]c(-c3ccccn3)nc2s1 | 1.79 | 2.03 | 2.16 | 2.13 | > 80 µM (inactive) | > 80 | 1.76 | 2.43 | 3.1 | 2.61 µM | 1.76 | 1.4 | 1.74 | 1.28 | 
O=C1C=CC(=O)N1c1cccc(-c2ccccc2)c1 |  | 22.8 | 22.8 | > 80 | > 80 µM (inactive) | > 80 | 47 | 47 | > 80 | 9.66 µM | 9.66 |  | > 80 |  | 21.2
O=C(Nc1nc2c(F)cc(F)cc2s1)c1ccccn1 | 0.798 | 1.59 | 2.38 | > 80 | > 80 µM (inactive) | > 80 | 0.66 | 1.03 | 1.4 | 1.4 µM | 1.11 | 0.803 | 1.23 | 1 | 
CC(=O)Nc1ccc(Sc2ccc([N+](=O)[O-])o2)cc1 | 14.2 | 14.4 | 15.4 | 13.6 | > 80 µM (inactive) | > 80 | 9.21 | 8.82 | 8.44 | 13.7 µM | 10.7 | 9.08 | 8.84 | 11.3 | 
CNc1ccc2oc(C[C@H]3O[C@@]4(CC[C@H]3C)O[C@H]([C@H](C)C(=O)c3ccc[nH]3)[C@H](C)C[C@H]4C)nc2c1C(=O)O | 10.9 | 11.7 | 12.4 | > 80 | > 80 µM (inactive) | > 80 | 6.14 | 6.15 | 6.16 | 5.85 µM | 8.6 | 6.42 | 7.09 | 15 | 
Cc1ccccc1Oc1cc(-n2ncc(Cl)c(Cl)c2=O)ncn1 | 3.31 | 4.62 | 5.92 | > 80 | > 80 µM (inactive) | > 80 | 1.27 | 1.51 | 1.75 | 1.57 µM | 1.48 |  | 1.38 |  | 105
CN(c1ccccc1)S(=O)(=O)c1ccc(NC(=O)c2nc(S(C)(=O)=O)ncc2Cl)cc1 | 7.36 | 7.72 | 7.88 | 7.91 | > 80 µM (inactive) | > 80 | 6.25 | 5.69 | 5.13 | 6.05 µM | 7.41 | 8.06 | 6.38 | 9.16 | 
Cc1cccc(CSc2cccc3cccnc23)c1 | 2.86 | 3.95 | 4.91 | 4.08 | > 80 µM (inactive) | > 80 | 3.94 | 4.64 | 5.33 | 3.79 µM | 3.51 | 2.78 | 4.39 | 3.09 | 
O=[N+]([O-])c1cc([N+](=O)[O-])c2cc3ccccc3nc2c1 |  | > 80 | > 80 | > 80 | > 80 µM (inactive) | > 80 |  | > 80 | > 80 | > 80 µM (inactive) | > 80 |  | > 80 |  | -64.9
